According to paper PMC10376326, “Novel Acylselenourea Derivatives: Dual Molecules with Anticancer and Radical Scavenging Activity” (Antioxidants, 2023):

Columns and labels:
[1] = system: HTB-54 (lung) cancer cell line; test: MTT cell viability assay, HTB-54; assay type: cell-based, human
[2] = system: MDA-MB-231 (breast) cancer cell line; test: MTT cell viability assay, MDA-MB-231; assay type: cell-based, human
Procedure, shortened: (§1)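 MDA-MB-231, HTB-54 and DU-145 grown in RPMI 1640, HT-29 in McCoy's 5A (10% FBS). Output is % cell growth; IC50 determined; ≥3 experiments in quadruplicate.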

[3] = system: DU-145 (prostate) cancer cell line; test: MTT cell viability assay, DU-145; assay type: cell-based, human
Procedure, shortened: as §1

[4] = system: HTB-54 (lung) cancer cell line; set-up: method as in PMID 22397496; details: cited from earlier work
[5] = system: non-malignant BEAS-2B lung cell line; set-up: method as in doi:10.30918/IRJMMS.72.19.022; details: cited from earlier work
[6] = DPPH radical scavenging assay; assay type: biochemical
Procedure, shortened: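 Acylselenoureas at 0.003 and 0.03 mg/mL (final dilutions from DMSO stock, via methanol) mixed with DPPH• prepared at 0.04 mg/mL in methanol. Absorbance decrease at 517 nm followed 0–120 min; % scavenging calculated relative to negative control, triplicates.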

[7] = system: HT-29 (colon) cancer cell line; test: MTT cell viability assay, HT-29; assay type: cell-based; details: Homo sapiens, HT-29, 48 h, read-out: Cell growth %
Procedure, shortened: as §1

[8] = system: MDA-MB-231, HT-29, HTB-54 and DU-145 cancer cell lines; test: MTT cell viability assay, statements over the panel of cancer cell lines; assay type: cell-based, human; details: 10 µM, over the four cancer cell lines
Procedure: Cell lines were purchased from the American Type Culture Collection (ATCC). Cell lines MDA-MB-231, HTB-54, DU-145, and BEAS-2B were cultured in RPMI 1640 medium (Gibco, Thermo Fisher Scientific, Gaithersburg, MD, USA) supplemented with 10% fetal bovine serum (FBS; Gibco), 100 units/mL penicillin, and […] streptomycin (Gibco). HT-29 cell line was grown in McCoy’s 5A (Gibco), 10% FBS, 100 units/mL penicillin, and 100 μg/mL streptomycin. Cells were maintained at 37 °C and 5% CO2. The culture medium was changed every three days.
The cell viability of each compound was measured by MTT colorimetric assay. Each compound was dissolved in DMSO at a concentration of 0.01 M. Each compound was tested at two different concentrations (10 and 50 µM) in MDA-MB-231 (breast), HTB-54 (lung), DU-145 (prostate), and HT-29 (colon) human cancer cell lines. Serial dilutions were prepared with supplemented culture medium. […] IC50 and selectivity indexes (SI) were determined.
Briefly, 1 × 10^4 tumor cells per well were grown in 96-well plates for 24 h. Then, these cells were incubated for 48 h with either DMSO (control) or a different concentration of each of the tested compounds. The cell viability was determined by adding 20 μL of MTT two hours and a half before the termination point. After this time, the culture medium was removed. The resulting formazan crystals were dissolved in 50 μL of DMSO, and the absorbance was measured at 570 nm. Results are expressed as % cell growth. The data were obtained from at least three independent experiments performed in quadruplicate.

## N.N.[Cl][Pt][Cl] [Cisplatin, reference compound]
[1]; IC50 (BEAS-2B)/IC50 (HTB-54)
  SI: 0.63
[2]; Breast, MTT, 48 h, read-out: IC50 MDA-MB-231
  IC50: 5.5 ± 0.5 µM
[3]; Prostate, MTT, 48 h, read-out: IC50 DU-145
  IC50: 6.2 ± 0.1 µM
[4]
  IC50: 13.7 µM
[5]
  IC50: 8.63 µM

## C=CCNC(=[Se])NC(=O)/C=C/c1ccco1 [Compound 3.II, (E)-N-(allylcarbamoselenoyl)-3-(furan-2-yl)acrylamide]
[6]; 0.003 mg/mL, 0 min
  inhibition: 0%
[6]; 0.003 mg/mL, 5 min
  inhibition: 0%
[6]; 0.003 mg/mL, 15 min
  inhibition: 0%
[6]; 0.003 mg/mL, 30 min
  inhibition: 0.5 ± 2.9%
[6]; 0.003 mg/mL, 60 min
  inhibition: 1.7 ± 2.9%
[6]; 0.003 mg/mL, 90 min
  inhibition: 2.5 ± 2.9%
[6]; 0.003 mg/mL, 120 min
  inhibition: 3.3 ± 2.9%
[6]; 0.03 mg/mL, 0 min
  inhibition: 0.7 ± 2.7%
[6]; 0.03 mg/mL, 5 min
  inhibition: 5.2 ± 1.8%
[6]; 0.03 mg/mL, 15 min
  inhibition: 9 ± 1.6%
[6]; 0.03 mg/mL, 30 min
  inhibition: 14.3 ± 1.1%
[6]; 0.03 mg/mL, 60 min
  inhibition: 23.7 ± 0.8%
[6]; 0.03 mg/mL, 90 min
  inhibition: 31.7 ± 0.1%
[6]; 0.03 mg/mL, 120 min
  inhibition: 39.6 ± 0.1%
[1]; Homo sapiens, HTB-54, 48 h, read-out: Cell growth %, HTB-54, 10 µM, 48 h, MTT
  activity at 10 µM: 73.1 ± 3%
[1]; Homo sapiens, HTB-54, 48 h, read-out: Cell growth %, HTB-54, 50 µM, 48 h, MTT
  activity at 50 µM: 35.4 ± 8.9%
[2]; Homo sapiens, MDA-MB-231, 48 h, read-out: Cell growth %, MDA-MB-231, 10 µM, 48 h, MTT
  activity at 10 µM: 79.6 ± 7.7%
[2]; Homo sapiens, MDA-MB-231, 48 h, read-out: Cell growth %, MDA-MB-231, 50 µM, 48 h, MTT
  activity at 50 µM: 14.1 ± 5.8%
[3]; Homo sapiens, DU-145, 48 h, read-out: Cell growth %, DU-145, 10 µM, 48 h, MTT
  activity at 10 µM: 93.6 ± 14.7%
[3]; Homo sapiens, DU-145, 48 h, read-out: Cell growth %, DU-145, 50 µM, 48 h, MTT
  activity at 50 µM: 10.4 ± 4.1%
[7]; HT-29, 10 µM
  activity at 10 µM: 63.3 ± 15%
[7]; HT-29, 50 µM
  activity at 50 µM: 33.2 ± 6.1%
[8]
  cell growth %: 54.8–95.0%
other
  melting point: 104 to 105 °C
